Results on 15 compounds are retold here after patent EP0559700B1, “NOVEL PILOCARPINE DERIVATIVES AND PROCESS FOR THEIR PREPARATION” (Santen Oy, priority 1990, dated 1992).

Data set [1] can be described thus: Stability of the compounds: buffer hydrolysis (half-times, shelf-life). In kind it is physicochemical. The procedure: The stability of the test compounds were tested with buffer hydrolyses. The ionic strength (µ) of the buffers was 0.5, the pH-values used 4.2, 6.0, 7.4 and 9.0 and the temperatures used 37°C, 50 °C, 60 °C and 70 °C.
The half-times T½ calculated on basis of the degradation constant k obtained for each studied compound (T½=0.693/k; k = 2.303 x kk, wherein kk is the angular coefficient of the plot which illustrates the logarithm of the remaining ester as a function of time) in a buffer solution of said pH, are indicated in the Table I below, which values refer to half-times at 37°C.
The storage stability of the derivatives under different storage conditions may be estimated by determining the degradation constants at different temperatures and calculating the degradation constant k at the desired temperature from the equation of the plot corresponding to the Arrhenius equation (1), wherein log k is given as a function of [1/T]. Log k = Log A -(Ea)/(2.303R)x(1)/(T) [formula]
From the degradation constant (k) obtained at the desired temperature the shelf-life-time t10% (t10% = 0.104/k) which indicates the time during which 10% of the drug has degraded may be calculated. By way of example it may be mentioned that the t10%-time of O,O'-dipropionyl (1,4-xylylene) bispilocarpate at 4 °C is almost 500 days.

Data set [2] in a line: Lipophilicity: partition coefficient (octanol-buffer) and capacity factor by RP-HPLC. In kind it is physicochemical. To be noted: for chromatographic logP / Capacity factor (22°C) k': rp-hplc; for chromatographic logP: reverse phase HPLC, 22°C, read-out: Capacity factor (22°C) k' (converted). The source says: The lipophilicity of the compounds were studied by determining the partition coefficients (P) of the compounds at a pH of 7.40. The measurements were made either in an octanol-buffer mixture by determining the concentration of the compound to be studied in the buffer phase by HPLC. The partition coefficients of the very lipophilic compounds were, however, determined by reverse phase (RP) liquid chromatography (HPLC) from the retention time (Beckmann 116 pump and 166 UV detector; Marathon autom. sample feeder). […] From the results it can be seen that the compounds of the invention are considerably more lipophilic than the pilocarpine.

Data set [3] in a line: pKa-value determination by titration in a water-ethanol mixture (50%-50%). To be noted: water-ethanol 50:50; titration in water-ethanol mixture (50%-50%). In kind it is physicochemical.
The nature of data set [4]: Enzyme hydrolysis in plasma/buffer pH 7.4 mixture (80%-20%). To be noted: for half-life: 80% plasma/buffer. In kind it is in vitro ADME. The procedure: The half-times of enzyme hydrolysis of the novel bispilocarpates according to the invention and of known pilocarpic acid diesters were determined in a plasma/buffer pH 7.4-mixture (80%-20%) at 37°C. The degradation constants (k) for the compounds tested and determined from the plot showing the logarithm of remaining diester as a function of time and the half-lives T½ are shown in the Table II below. From the results it may be seen that in […] the stable test compound degrades under the influence of an enzyme (esterase) to a O,O'-dihydrogen bispilocarpate intermediate, which spontaneously degrades at pH 7.40 to pilocarpine. Consequently the effect of the bispilocarpate intermediate on the rate of formation of pilocarpine is very significant. The formation of pilocarpine was almost complete irrespective of the epimerization possibility of the intermediate. The amount of isopilocarpine formed varied from 0 to 10%, as also the pilocarpine formed epimerized, if the duration of hydrolysis was very long.

Where [5] appears, read: buffer pH 6.00, ionic strength 0.5, 37°C, read-out: Half-times in buffers at 37°C, T½, pH 6.00 (converted).
Where [6] appears, read: buffer pH 9.00, ionic strength 0.5, 37°C, read-out: Half-times in buffers at 37°C, T½, pH 9.00 (converted).
Setting [7] is: pH 4.2, buffer pH 4.20, ionic strength 0.5, 37°C, read-out: Half-times in buffers at 37°C, T½, pH 4.20 (converted).
[8] abbreviates: pH 7.4, buffer pH 7.40, ionic strength 0.5, 37°C, read-out: Half-times in buffers at 37°C, T½, pH 7.40 (converted).
The mark [9] stands for this setting: determined from the equation log k'= 0.182 Log P - 0.4086 (RP-HPLC retention).

For `CC[C@H](C(=O)OCCCCCCOC(=O)[C@@H](CC)[C@H](CO)Cc1cncn1C)[C@H](CO)Cc1cncn1C` [Example 5, O,O'-Dihydrogen (1,6-hexylene) bispilocarpate], the half-life in data set [1] (setting [5]) is 25.1 h; in data set [1] (setting [6]), 0.233 h; in data set [1] (setting [7]), 62.6 h; in data set [1] (setting [8]), 2.5 h. For the same compound, the chromatographic logP in data set [2] is -0.0494. The pKa in data set [3] stood at 6.3.
Regarding `CC[C@H](C(=O)OCc1ccccc1)[C@H](COC(=O)c1ccc(C(=O)OC[C@H](Cc2cncn2C)[C@H](CC)C(=O)OCc2ccccc2)cc1)Cc1cncn1C` [Example 19, O,O'-Terephtaloyl (dibenzyl) bispilocarpate], the half-life in data set [1] (setting [5]) is 913 h; in data set [1] (setting [6]), 38 h; in data set [1] (setting [7]) it was 1580 h; in data set [1] (setting [8]), 55 h; in data set [4] (pH 7.4), 3.58 h. Besides, in data set [2] (setting [9]), the “Partition coefficient log P” value is 7.0000^2. The chromatographic logP in data set [2] is 0.865. Further, the “Degradation coefficient (k) in plasma (80%), 37°C” value in data set [4] (pH 7.4) worked out at 0.00322 min⁻¹. In addition, in data set [3], the pKa was 6.
In the case of `CCCCCCCC(=O)OC[C@H](Cc1cncn1C)[C@H](CC)C(=O)OCc1ccccc1` [octanoyl, benzyl, reference compound], in data set [4] (plasma/buffer pH 7.4 (80%-20%), 37°C, read-out: half-times (T½) in plasma (80%), 37°C), the half-life was determined as 0.45 h. For the same compound, the “Degradation coefficient (k) in plasma (80%), 37°C” value in data set [4] (plasma/buffer pH 7.4 (80%-20%), 37°C) was determined as 0.02556 min⁻¹.
As to `CC[C@H](C(=O)OCc1ccccc1)[C@H](COC(=O)CCCCC(=O)OC[C@H](Cc1cncn1C)[C@H](CC)C(=O)OCc1ccccc1)Cc1cncn1C` [Example 15, O,O'-Adipoyl (dibenzyl) bispilocarpate], the half-life is 3140 h in data set [1] (buffer, pH 4.2); 1650 h in data set [1] (buffer, pH 6); 655 h in data set [1] (buffer, pH 7.4); 70 h in data set [1] (buffer, pH 9); 0.467 h in data set [4] (pH 7.4). For the same compound, the “Partition coefficient log P” value in data set [2] (pH 7.4) is on record as 5.8242^2. The “Capacity factor (22°C) k'” value in data set [2] was found to be 4.4810. Besides, in data set [2], the chromatographic logP is 0.651. The “Degradation coefficient (k) in plasma (80%), 37°C” value in data set [4] (pH 7.4) stood at 0.02487 min⁻¹. Besides, the pKa in data set [3] is 6.
Consider `CC[C@H](C(=O)OCc1ccccc1)[C@H](COC(=O)/C=C/C(=O)OC[C@H](Cc1cncn1C)[C@H](CC)C(=O)OCc1ccccc1)Cc1cncn1C` [Example 18, O,O'-Fumaroyl (dibenzyl) bispilocarpate], for which the half-life is 834 h in data set [1] (buffer, pH 4.2); 49 h in data set [1] (buffer, pH 6); 6 h in data set [1] (buffer, pH 7.4); 0.4 h in data set [1] (buffer, pH 9); 2.78 h in data set [4] (pH 7.4). In addition, the “Partition coefficient log P” value in data set [2] (pH 7.4) is on record as 5.7137^2. Besides, the “Capacity factor (22°C) k'” value in data set [2] is on record as 4.2785. Also, in data set [2], the chromatographic logP is 0.631. In data set [4] (pH 7.4), the “Degradation coefficient (k) in plasma (80%), 37°C” value amounted to 0.00415 min⁻¹. The pKa in data set [3] was determined as 6.05.
With `CC[C@H](C(=O)OCCCCOC(=O)[C@@H](CC)[C@H](CO)Cc1cncn1C)[C@H](CO)Cc1cncn1C` [Example 7, O,O'-Dihydrogen (1,4-butylene) bispilocarpate], the half-life was 18.9 h in data set [1] (setting [5]), 0.167 h in data set [1] (setting [6]), 120 h in data set [1] (setting [7]) and 2.63 h in data set [1] (setting [8]). In addition, the chromatographic logP in data set [2] is -0.182. The pKa in data set [3] was found to be 6.35.
On to `CC[C@H](C(=O)OCc1ccccc1)[C@H](CO)Cc1cncn1C` [pilocarpic acid benzyl ester], for which the chromatographic logP in data set [2] is -0.116. For the same compound, the pKa in data set [3] was found to be 6.5.
`CC[C@H](C(=O)OCCCCCOC(=O)[C@@H](CC)[C@H](CO)Cc1cncn1C)[C@H](CO)Cc1cncn1C` [Example 6, O,O'-Dihydrogen (1,5-pentylene) bispilocarpate]: the half-life in data set [1] (setting [5]) was 24.6 h; in data set [1] (setting [6]) it was 0.233 h; in data set [1] (setting [7]), 73 h; in data set [1] (setting [8]), 2.08 h. Moreover, the chromatographic logP in data set [2] was -0.123. Besides, in data set [3], the pKa stood at 6.3.
Take `CC[C@H](C(=O)OCc1ccc(COC(=O)[C@@H](CC)[C@H](CO)Cc2cncn2C)cc1)[C@H](CO)Cc1cncn1C` [Example 1, O,O'-Dihydrogen (1,4-xylylene) bispilocarpate]: the half-life is 2.28 h in data set [1] (setting [5]), 0.0317 h in data set [1] (setting [6]), 37.6 h in data set [1] (setting [7]) and 0.3 h in data set [1] (setting [8]). Besides, in data set [2], the chromatographic logP was -0.0915. In data set [3], the pKa came to 6.25.
For `CC[C@H](C(=O)OCc1ccccc1COC(=O)[C@@H](CC)[C@H](CO)Cc1cncn1C)[C@H](CO)Cc1cncn1C` [Example 3, O,O'-Dihydrogen (1,2-xylylene) bispilocarpate], the half-life in data set [1] (setting [5]) is 3.35 h; in data set [1] (setting [6]), 0.0233 h; in data set [1] (setting [7]), 20.2 h; in data set [1] (setting [8]) it was 0.417 h. The chromatographic logP in data set [2] is -0.0814. Besides, in data set [3], the pKa turned out to be 6.3.
For the compound `CC[C@H](C(=O)OCc1ccccc1)[C@H](COC(=O)CCCC(=O)OC[C@H](Cc1cncn1C)[C@H](CC)C(=O)OCc1ccccc1)Cc1cncn1C` [Example 16, O,O'-Glutaryl (dibenzyl) bispilocarpate], the half-life in data set [1] (setting [5]) was 2200 h; in data set [1] (setting [6]), 43 h; in data set [1] (setting [7]), 4190 h; in data set [1] (setting [8]), 757 h; in data set [4] (pH 7.4), 0.233 h. For the same compound, the “Partition coefficient log P” value in data set [2] (setting [9]) is 5.4093^2. For the same compound, in data set [2], the chromatographic logP is 0.576. Moreover, the “Degradation coefficient (k) in plasma (80%), 37°C” value in data set [4] (pH 7.4) is 0.05044 min⁻¹. For the same compound, the pKa in data set [3] worked out at 6.
`CC[C@H](C(=O)OCc1ccccc1)[C@H](COC(=O)CCC(=O)OC[C@H](Cc1cncn1C)[C@H](CC)C(=O)OCc1ccccc1)Cc1cncn1C` [Example 17, O,O'-Succinyl (dibenzyl) bispilocarpate]: the half-life is 4760 h in data set [1] (buffer, pH 4.2); 2550 h in data set [1] (buffer, pH 6); 251 h in data set [1] (buffer, pH 7.4); 28 h in data set [1] (buffer, pH 9); 3.13 h in data set [4] (pH 7.4). Also, the “Partition coefficient log P” value in data set [2] (pH 7.4) was 5.2038^2. Also, the “Capacity factor (22°C) k'” value in data set [2] amounted to 3.4557. For the same compound, the chromatographic logP in data set [2] is 0.539. In data set [4] (pH 7.4), the “Degradation coefficient (k) in plasma (80%), 37°C” value amounted to 0.00368 min⁻¹. Further, in data set [3], the pKa worked out at 6.
`CC[C@H](C(=O)OCc1cccc(COC(=O)[C@@H](CC)[C@H](CO)Cc2cncn2C)c1)[C@H](CO)Cc1cncn1C` [Example 2, O,O'-Dihydrogen (1,3-xylylene) bispilocarpate]: the half-life in data set [1] (setting [5]) was 2.78 h; in data set [1] (setting [6]), 0.0183 h; in data set [1] (setting [7]), 48.8 h; in data set [1] (setting [8]), 0.317 h. Moreover, in data set [2], the chromatographic logP is -0.0814. Moreover, in data set [3], the pKa worked out at 6.3.
With `CC[C@H](C(=O)OCCCCCCCOC(=O)[C@@H](CC)[C@H](CO)Cc1cncn1C)[C@H](CO)Cc1cncn1C` [Example 4, O,O'-Dihydrogen (1,7-heptylene) bispilocarpate], the half-life is 29.9 h in data set [1] (setting [5]), 0.3 h in data set [1] (setting [6]), 81.8 h in data set [1] (setting [7]) and 3.35 h in data set [1] (setting [8]). Moreover, the chromatographic logP in data set [2] was 0.0518. Moreover, the pKa in data set [3] was 6.3.
On to `CC[C@H](C(=O)OCCCOC(=O)[C@@H](CC)[C@H](CO)Cc1cncn1C)[C@H](CO)Cc1cncn1C` [Example 8, O,O' -Dihydrogen (1,3-propylene) bispilocarpate], for which the half-life in data set [1] (setting [5]) was 10.3 h; in data set [1] (setting [6]) it was 0.0667 h; in data set [1] (setting [7]), 67.3 h; in data set [1] (setting [8]), 1.2 h. Also, the chromatographic logP in data set [2] is -0.212. Also, in data set [3], the pKa is 6.4.

In general, pKa refers to the negative logarithm of the acid dissociation constant.
